From the NIST ThermoML archive (doi:10.1021/je0504459)

Test: xn = mol fraction of the nth substance listed
Details: 101 kPa, Liquid; for speed of sound: Sing-around technique in a fixed-path interferometer

ClC(Cl)Cl [trichloromethane] + CCCCCCCO
Details	kinematic viscosity, 303.15 K [m2/s]	kinematic viscosity, 313.15 K [m2/s]	mass density, 303.15 K [kg/m3]	mass density, 313.15 K [kg/m3]	speed of sound, 303.15 K [m/s]	speed of sound, 313.15 K [m/s]
x1 = 0.0487	5.58e-06	4.17e-06	833.37	825.81	1296	1262
x1 = 0.1002	4.98e-06	3.74e-06	853.69	845.75	1277	1244
x1 = 0.1498	4.41e-06	3.34e-06	874.2	865.8	1260	1226
x1 = 0.2006	3.86e-06	2.95e-06	896.15	887.32	1241	1207
x1 = 0.2516	3.38e-06	2.61e-06	919.27	909.96	1222	1187
x1 = 0.3003	2.93e-06	2.29e-06	942.39	932.57	1204	1168
x1 = 0.3538	2.52e-06	1.99e-06	969.09	958.73	1183	1147
x1 = 0.4003	2.18e-06	1.75e-06	993.52	982.67	1165	1129
x1 = 0.4466	1.89e-06	1.54e-06	1019.1	1007.69	1147	1111
x1 = 0.5001	1.61e-06	1.32e-06	1050.23	1038.22	1126	1091
x1 = 0.5517	1.35e-06	1.13e-06	1082.09	1069.43	1107	1072
x1 = 0.6002	1.17e-06	1e-06	1113.83	1100.51	1089	1054
x1 = 0.6539	9.76e-07	8.45e-07	1151.17	1137.19	1070	1035
x1 = 0.6994	8.51e-07	7.41e-07	1184.84	1170.19	1054	1019
x1 = 0.7449	7.4e-07	6.59e-07	1220.55	1205.18	1039	1004
x1 = 0.8	6.33e-07	5.69e-07	1266.83	1250.5	1022	987
x1 = 0.8465	5.58e-07	5.09e-07	1308.67	1291.64	1008	972
x1 = 0.9003	4.81e-07	4.45e-07	1360.81	1342.82	993	957
x1 = 0.9521	4.2e-07	3.88e-07	1414.86	1396.16	979	943
x1 = 1	3.63e-07	3.39e-07	1469.21	1449.74	969	934

ClC(Cl)Cl [trichloromethane] + CCCCCCO
Details	kinematic viscosity, 303.15 K [m2/s]	kinematic viscosity, 313.15 K [m2/s]	mass density, 303.15 K [kg/m3]	mass density, 313.15 K [kg/m3]	speed of sound, 303.15 K [m/s]	speed of sound, 313.15 K [m/s]
x1 = 0.0497	4.36e-06	3.21e-06	833.07	825.31	1271	1238
x1 = 0.1004	3.88e-06	2.89e-06	855.62	847.51	1253	1220
x1 = 0.15	3.45e-06	2.59e-06	878.54	870.06	1236	1201
x1 = 0.2006	3.04e-06	2.31e-06	902.79	893.94	1217	1182
x1 = 0.2506	2.67e-06	2.05e-06	927.71	918.4	1198	1163
x1 = 0.3005	2.34e-06	1.83e-06	953.48	943.71	1180	1143
x1 = 0.3497	2.04e-06	1.6e-06	980.04	969.85	1161	1125
x1 = 0.4004	1.77e-06	1.41e-06	1008.41	997.66	1142	1105
x1 = 0.4516	1.53e-06	1.23e-06	1038.38	1027.09	1123	1086
x1 = 0.4996	1.34e-06	1.09e-06	1067.63	1055.84	1106	1069
x1 = 0.552	1.14e-06	9.5e-07	1100.94	1088.53	1087	1051
x1 = 0.6	9.87e-07	8.33e-07	1133.01	1120	1070	1034
x1 = 0.654	8.52e-07	7.35e-07	1170.75	1157	1052	1016
x1 = 0.7001	7.46e-07	6.49e-07	1204.57	1190.18	1038	1002
x1 = 0.753	6.5e-07	5.82e-07	1245.39	1230.25	1023	986
x1 = 0.7992	5.82e-07	5.22e-07	1282.69	1266.83	1010	974
x1 = 0.8511	5.08e-07	4.7e-07	1327.07	1310.35	997	961
x1 = 0.8996	4.5e-07	4.26e-07	1370.59	1352.95	987	950
x1 = 0.9502	4.06e-07	3.81e-07	1418.68	1400.1	977	941
x1 = 1	3.63e-07	3.39e-07	1469.21	1449.74	969	934

ClC(Cl)Cl [trichloromethane] + CCCCCO
Details	kinematic viscosity, 303.15 K [m2/s]	kinematic viscosity, 313.15 K [m2/s]	mass density, 303.15 K [kg/m3]	mass density, 313.15 K [kg/m3]	speed of sound, 303.15 K [m/s]	speed of sound, 313.15 K [m/s]
x1 = 0.0603	3.29e-06	2.56e-06	838.65	830.58	1241	1206
x1 = 0.1009	3.02e-06	2.35e-06	859.39	850.98	1226	1191
x1 = 0.1484	2.7e-06	2.12e-06	884.22	875.42	1209	1173
x1 = 0.1999	2.37e-06	1.88e-06	911.83	902.58	1190	1154
x1 = 0.2517	2.08e-06	1.66e-06	940.34	930.67	1171	1135
x1 = 0.2999	1.83e-06	1.48e-06	967.6	957.42	1153	1117
x1 = 0.3492	1.61e-06	1.31e-06	996.23	985.58	1135	1099
x1 = 0.3998	1.39e-06	1.15e-06	1026.46	1015.29	1118	1082
x1 = 0.45	1.22e-06	1.02e-06	1057.32	1045.59	1101	1065
x1 = 0.5004	1.07e-06	9.03e-07	1089.21	1076.95	1084	1048
x1 = 0.5498	9.31e-07	8.02e-07	1121.44	1108.55	1068	1032
x1 = 0.6001	8.27e-07	7.22e-07	1155.25	1141.78	1053	1017
x1 = 0.6513	7.24e-07	6.43e-07	1190.8	1176.65	1038	1002
x1 = 0.7003	6.57e-07	5.85e-07	1225.93	1211.12	1025	989
x1 = 0.751	5.85e-07	5.3e-07	1263.53	1247.97	1012	977
x1 = 0.8	5.3e-07	4.83e-07	1301.08	1284.81	1001	966
x1 = 0.8503	4.87e-07	4.48e-07	1341.02	1323.97	991	956
x1 = 0.9004	4.42e-07	4.11e-07	1382.24	1364.37	982	947
x1 = 0.952	4.05e-07	3.75e-07	1426.4	1407.56	974	938
x1 = 1	3.63e-07	3.39e-07	1469.21	1449.74	969	934
